Publication PMC6191541, “Small-Molecule Acetylation Controls the Degradation of Benzoate and Photosynthesis in Rhodopseudomonas palustris” (mBio, 2018)

What was measured:
MmBadL = target: T1, MmBadL (Paramagnetospirillum magneticum, UniProt Q2W1S9); assay: [[…]-14C]acetyl-CoA transfer, TLC phosphor imaging; type: biochemical; conditions: co-substrate acetyl-CoA
T1 construct: gene amb3392; plasmid pMmBadL2, expressed in E. coli C41(lambda-DE3) pka12::kan+, purified; tag details in Text S1

GmBadL = target: T2, GmBadL (Geobacter metallireducens, UniProt Q39TU9); assay: [[…]-14C]acetyl-CoA transfer, TLC phosphor imaging; type: biochemical; conditions: co-substrate acetyl-CoA
T2 construct: gene Gmet_2096; plasmid pGmBadL1, expressed in E. coli C41(lambda-DE3) pka12::kan+, purified; tag details in Text S1

BadM = target: T3, BadM (Rhodopseudomonas palustris, UniProt O07465); assay: EMSA with 6-FAM-labelled badDEFGAB promoter probe; conditions: 72 nM BadM, 12 nM probe; 10 mM compound, blocks DNA binding; no effect at 5 mM
T3 construct: plasmid pRpBadM8, expressed in E. coli C41(lambda-DE3) pka12::kan+, purified; tag details in Text S1

[1] = target: T4, BadM (Rhodopseudomonas palustris) (UniProt O07465); assay: EMSA; conditions: 25 µL; Tris 20 mM pH 7.5 (at 25°C), KCl 50 mM, DTT 1 mM, glycerol (rest of buffer not in the material); probe 12 nM (0.303 pmol), BadM 72 nM (1.8 pmol) …
T4 sequence: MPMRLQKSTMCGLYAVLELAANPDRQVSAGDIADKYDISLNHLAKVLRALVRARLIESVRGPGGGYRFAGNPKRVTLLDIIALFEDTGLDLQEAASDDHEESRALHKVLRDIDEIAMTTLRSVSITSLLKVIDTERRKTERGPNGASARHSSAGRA

T1 sequence (Q2W1S9 entry or part of it): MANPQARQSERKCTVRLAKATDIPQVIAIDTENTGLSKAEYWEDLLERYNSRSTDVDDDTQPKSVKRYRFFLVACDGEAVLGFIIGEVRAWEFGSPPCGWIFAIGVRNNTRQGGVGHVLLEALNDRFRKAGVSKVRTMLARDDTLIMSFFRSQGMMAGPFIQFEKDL
T2 sequence (Q39TU9 entry or part of it): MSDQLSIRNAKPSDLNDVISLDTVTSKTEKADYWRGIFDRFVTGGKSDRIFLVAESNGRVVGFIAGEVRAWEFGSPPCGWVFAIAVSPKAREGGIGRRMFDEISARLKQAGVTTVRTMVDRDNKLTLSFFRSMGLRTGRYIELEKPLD

Nc1ccc(C(=O)O)cc1 [4-ABA, 4-aminobenzoate]
[1-14C]acetyl-CoA transfer, TLC phosphor imaging (MmBadL): MmBadL and GmBadL acetylated 4-aminobenzoate producing 4-acetamidobenzoate
[1-14C]acetyl-CoA transfer, TLC phosphor imaging (GmBadL): MmBadL and GmBadL acetylated 4-aminobenzoate producing 4-acetamidobenzoate

CC(=O)Nc1ccccc1C(=O)O [2-ABA^Ac, 2-acetamidobenzoate]
EMSA with 6-FAM-labelled badDEFGAB promoter probe (BadM): addition of 2-acetamidobenzoate blocked binding of BadM to its DNA target

GTGATGCGGCCTGTCGAGCATGCCGGTCGTCCTCCCTGCCCGGCGGCTCTGCCGGGTCGCGCTGCCGGCCATTTTCCGGCCCAGCGATTTAAATGTAATCTAGTATCGGAATGCGATAATTAATTTGATGCGGATCAAATTTGGCAAAGGCACAGCCGACACGGGCCGACGCCGGCTCGTAGTCGGGAGGCTCAGATATCGATCGCGATCTT (double strand) [badDEFGAB promoter / badCD intergenic probe]
binding [1]: binds
